The test system of data set [1] is Human Cytomegalovirus. As to the kind of experiment: Semi-automated CPE-inhibition assay for HCMV in human foreskin fibroblast cells. In kind it is cell-based. The procedure: (§1) Additional antiviral testing was carried out to test the efficacy of compounds of the invention against human cytomegalovirus (HCMV) and another herpesvirus, Variecella Zoster Virus(VZV). The compounds tested were compound (1), the HCl salt of compound (1), Compounds 211, 43, 213 and 214.

Data set [2] deals with Epstein Barr virus (EBV). As to the kind of experiment: Antiviral screening against Epstein Barr virus. In kind it is cell-based. Particulars: human gammaherpesvirus 4; read-out: anti-EBV activity EC50.
A short description of data set [3]: Inhibition of cell proliferation (cytotoxicity) in herpesvirus screening. In kind it is cell-based, human. Particulars: human, human foreskin fibroblast cells.
In data set [4] the test system is Varicella Zoster Virus. As to the kind of experiment: Plaque reduction assay for VZV (Ellen strain). The format is cell-based. The procedure:
as §1
(In general: Plaque reduction counts the foci of infection that form in a cell layer.)

The test system of data set [5] is human foreskin fibroblast cells. Briefly: Inhibition of cell proliferation (cytotoxicity) in herpesvirus screening. The format is cell-based.
Data set [6] deals with Human Cytomegalovirus. Briefly: Plaque reduction assay for HCMV. The format is cell-based. Conditions: read-out: Human Cytomegalovirus EC50 (values in parentheses).
Setting [7] is: inhibit cell proliferation by 50%, HCMV CPE-inhibition screen, read-out: Human Cytomegalovirus CC50.
Where [8] appears, read: inhibit cell proliferation by 50%, VZV screen, read-out: Varicella Zoster Virus CC50.

Read-outs that look alike come from different tables or passages of the source. Some results are limits rather than exact numbers.

As a reminder, the EC50 is the midpoint of the concentration-response curve. The CC50 is the concentration giving 50% cytotoxicity. `C=C1CN(S(=O)(=O)c2ccc(C)cc2)CCCN(C(=O)OCC)CCCN(S(=O)(=O)c2ccc(C)cc2)C1` [Compound 213, 9-(Ethyloxycarbonyl)-3-methylene-1,5-ditosyl-1,5,9-triazacyclododecane]: the EC50 in data set [1] (Human betaherpesvirus 5) is 3 µM; in data set [2] it was 6.7 µM; in data set [4] (Human alphaherpesvirus 3) it was 170 µM. The CC50 is 167 µM in data set [3] (setting [7]); over 180 µM in data set [3] (setting [8]); over 180 µM in data set [3] (with anti-EBV screen, read-out: CC50).

In the case of “N-Benzyl-N-[3-(N-2-methyl-2-propenyl-toluenesulfonamido)propyl]-N-(3-toluenesulfonamidopropyl)amine dihydrogen sulfate [Compound 214]”, the figures for the half-maximal effective concentration (EC50) in data set [1], in data set [6] and in data set [4] were 2.2 µM, 20.5 µM and 25.2 µM, respectively. Further, the CC50 in data set [5] (setting [7]) was over 150 µM; in data set [5] (setting [8]), 68.5 µM; in data set [5] (with HCMV plaque reduction assay, read-out: Human Cytomegalovirus CC50 (values in parentheses)), 147 µM.

These data come from patent publication US6342492B1, “Anti-viral triaza compounds and compositions” (The Research Foundation of State University of New York, priority 1995, dated 2002).
